Measured values published in patent US11497813B2, “Bortezomib conjugates and methods using same” (Frank EBETINO et al., priority 2015, dated 2022).
“Also recorded” adds a separate entry of the source.

Assays:
5TGM1-GFP myeloma cells = assay: Multiple myeloma model, 5TGM1-GFP myeloma cells in NIH-III nude mice; type: in vivo, mouse
Excerpt: FIG. 25A depicts the groups and treatment used in the experimental examples. FIG. 25B depicts a table of clinical observations. FIG. 25C depicts images of GFP imaging showing the distribution of myeloma cells. FIG. 25D is a table of experimental data showing blood IgG2b levels. FIG. 25E is a table of experimental data showing osteoblast differentiation.
A MM model was generated using tail vein injection of 5TGM1-GFP myeloma cells into 6-week-old female NIH-III nude mice. Tumor burden and bone volume were examined.

osteoclasts = assay: Osteoclast formation and bone resorption on bone slices pre-incubated with compound; type: cell-based, mouse
Protocol: FIG. 5A is a scheme of an exemplary synthesis of compound BP-Btz1. FIG. 5B is a series of images of bone slices pre-incubated with 1 μM BP-Btz1, Btz, or bisphosphonate (BP) overnight. Drug solutions were removed and bone slices were washed with PBS extensively. […] (BM) cells from UB^G76V-GFP mice were cultured on bone slices in the presence of M-CSF and RANKL for 9 days. Top images (a): GFP^+ cells were observed under a fluorescence microscope and GFP signal intensity was quantified. Middle images (b): bone slices were fixed and subjected to TRAP staining for osteoclasts (OCs). OC #/slice were counted. Bottom images (c): cells were removed from slices. Toluidine blue staining was performed and pit areas/slice were counted. FIG. 5C is a series of images of murine BM cells cultured and stained for ALP. FIG. 5D is a series of images of human MSCs cultured and stained for ALP. Murine BM cells and human MSCs were cultured in the OB-inducing medium plus different concentrations of BP-Btz1 or Btz for 4 or 6 days, respectively. Cells were stained for ALP. The ALP^+ areas were measured by Image J. *P<0.05 vs. Btz-treated cells.
As a control, the effects of the non-bioactive bisphosphonate (BP) that would be released in the bone compartment were also studied. […] In a pivotal in vitro study, this BP-Btz1 and Btz were independently incubated with bone slices for 24 hours, after which the bone slices were removed and placed in culture wells with fresh media along with osteoclast precursors. […]
1. […] Following proteasome inhibitor administration, Ub^G76V accumulates and GFP fluorescence is readily apparent. GFP^+ OCs were detected at 4 and 8 hrs after adding Btz to OC cultures, which disappeared at 24 hrs. […] The number and area of OCs and resorption pits are assessed. The appearance, intensity and distribution of GFP^+ cells on bone slices and plastic surrounding bone slices during OC formation is observed and recorded. […] Area of ALP^+ and mineralized bone nodule, and the expression levels of OB marker genes (ALP, osteocalcin, Runx2) are measured. […]

Ub-proteins = assay: Duration of ubiquitinization effect (FIG. 18); conditions: compared with Btz
C57/B6 mice = assay: Systemic toxicity in C57/B6 mice, daily treatment for 3 weeks; type: in vivo
Protocol: C57/B6 mice, 7 w, BP or Btz (0.6 mg/kg), BP-Btz (1.2 mg/k), daily for 3 weeks. FIG. 29A depicts the groups and treatment used in the experimental examples. FIG. 29B depicts a table of experimental data of body weight before and after treatment. […] FIG. 29D depicts experimental data of bone marrow.

fractured mice = assay: Open tibial fracture healing in WT mice; type: in vivo, mouse
Protocol: WT mice that received an open tibial fracture were treated with Btz (0.6 mg/kg body weight, ip) or vehicle at day 1, 3, 5, 7, and sacrificed at various days post-fracture. FIG. 2A is an image of the structure of Bortezomib. FIG. 2B is a graph depicting μCT data analyses of callus size from 10 days post-fracture. N+4 mice/group. FIG. 2C is a series of images of representative histology of fractured tibiae stained with alcian blue hematoxylin/orange G eosin showing cartilage (blue) and bone (pink) formation. Histomorphometric measurements were performed with a Visiopharm Imaging Analysis software system. N=3 mice/group. FIG. 2D is a series of graphs depicting data of biomechanical testing of tibiae from 28 days after fracture. N=5 mice/group. FIG. 2E is a series of images of spectra depicting data of immune-phenotyping of callus cells from 7 days post-fracture. FIG. 2F is a series of images of immunoblots depicting protein expression levels of total Ub-proteins and JunB and Runx2 levels in calluses from 10 days post-fracture. *p<0.05 vs. vehicle group.

[1] = myeloma mice, compared with Btz

Q: Which results are given for `CC(C)C[C@H](NC(=O)[C@H](Cc1ccccc1)NC(=O)c1cnccn1)B1OCCN(CCOC(=O)NC(P(=O)(O)O)P(=O)(O)O)CCO1` [BP-Btz1]?
A: peripheral blood platelet and cell numbers (blood counts) (5TGM1-GFP myeloma cells; FIG. 27, compared with Btz): less deleterious effects than Btz; also recorded: reduces side effects on blood counts compared with Btz; osteoblast colonies from bone marrow cells (5TGM1-GFP myeloma cells; bone marrow cells from treated myeloma mice): form more osteoblast colonies; myeloma-induced bone loss (5TGM1-GFP myeloma cells; [1]): reduces tumor burden and myeloma-induced bone loss more effectively than Btz; also recorded: prevents myeloma-induced bone loss more effectively than Btz; tumor burden (5TGM1-GFP myeloma cells; [1]): reduces tumor burden and myeloma-induced bone loss more effectively than Btz; osteoclast function (osteoclasts): maintains its bioactivity on inhibition of OCs; also recorded: inhibits osteoclast function; Formation and activity of osteoclasts on pre-incubated bone slices (osteoclasts; bone slices pre-incubated with compound (1 μM, 24 hours), removed, then osteoclast precursors in fresh media): significantly reduced; anti-osteoclast activity on bone slices (osteoclasts; in vitro studies on bone slices, compared with Btz): anti-osteoclast activity equivalent to than Btz itself; ubiquitinization effect (Ub-proteins): more sustained ubiquitinization effect than Btz; B cell numbers in bone marrow (C57/B6 mice; C57/B6 mice, 7 w, daily for 3 weeks): reduces B cell numbers; systemic toxicity (C57/B6 mice; C57/B6 mice, daily for 3 weeks, compared with Btz): less systemic toxicity than Btz; toxic effect on neurons (dorsal root ganglia) (C57/B6 mice; EM images of dorsal root ganglia): prevents toxic effect on neurons

Q: Which results are given for `CC(C)C[C@H](NC(=O)[C@H](Cc1ccccc1)NC(=O)c1cnccn1)B(O)O` [Btz, [(1R)-3-methyl-1-[[(2S)-1-oxo-3-phenyl-2[(pyrazinylcarbonyl)amino]propyl]amino]butyl] boronic acid]?
A: expression of osteoblast positive regulators (fractured mice; 0.6 mg/kg ip day 1, 3, 5, 7, JunB and Runx2 in calluses): increases; MSC numbers (fractured mice; 0.6 mg/kg ip day 1, 3, 5, 7, callus cells): increases; Nestin+ MPCs (fractured mice; fractured mice): increased; bone strength (fractured mice; fractured mice): increases bone strength; callus formation (fractured mice; fractured mice): accelerates callus formation; Ub-proteins in fracture calluses (fractured mice; short-term treatment): accumulation of Ub-proteins; fracture healing (fractured mice; short-term treatment): increases fracture healing
